Assay results published in paper PMC7477889 (SLAS discovery : advancing life sciences R & D, 2020).
Entries after “also recorded” stand apart in the source; their conditions may differ. Where two headings read alike, the source gives them in different places.

Columns and labels:
GFP-AR = conditions: read-out: Nuclear Translocation EC50, cited from earlier work
[1] = system: GFP-PRER (chimeric progesterone receptor with ERα DBD); conditions: result in words; cited from earlier work
[2] = target: T1, GFP-ARER (chimeric androgen receptor with ERα DBD) (Homo sapiens, UniProt P10275, A574V/A587S/A588I/A597P/A623V/C570Y/D601Q/DEL544-554/E566Y/E589Q/F607N/G564N/G578E/I562V/K558R/K591H/K593D/L561A/L575W/L595M/L627K/N611S/P555K/P556E/P613Q/Q557T/Q592N/R599T/S579G/S598A/S614A/T542S/T559Y/T576S/T626M/V582A); test: GFP-ARER:PRL-HeLa high content analysis assay; format: cell-based
T1 sequence (P10275 with tags, fused parts or gaps T542S/DEL544-554/P555K/P556E/Q557T/K558R/T559Y/L561A/I562V/G564N/E566Y/C570Y/A574V/L575W/T576S/G578E/S579G/V582A/A587S/A588I/E589Q/K591H/Q592N/K593D/L595M/A597P/S598A/R599T/D601Q/F607N/N611S/P613Q/S614A/A623V/T626M/L627K): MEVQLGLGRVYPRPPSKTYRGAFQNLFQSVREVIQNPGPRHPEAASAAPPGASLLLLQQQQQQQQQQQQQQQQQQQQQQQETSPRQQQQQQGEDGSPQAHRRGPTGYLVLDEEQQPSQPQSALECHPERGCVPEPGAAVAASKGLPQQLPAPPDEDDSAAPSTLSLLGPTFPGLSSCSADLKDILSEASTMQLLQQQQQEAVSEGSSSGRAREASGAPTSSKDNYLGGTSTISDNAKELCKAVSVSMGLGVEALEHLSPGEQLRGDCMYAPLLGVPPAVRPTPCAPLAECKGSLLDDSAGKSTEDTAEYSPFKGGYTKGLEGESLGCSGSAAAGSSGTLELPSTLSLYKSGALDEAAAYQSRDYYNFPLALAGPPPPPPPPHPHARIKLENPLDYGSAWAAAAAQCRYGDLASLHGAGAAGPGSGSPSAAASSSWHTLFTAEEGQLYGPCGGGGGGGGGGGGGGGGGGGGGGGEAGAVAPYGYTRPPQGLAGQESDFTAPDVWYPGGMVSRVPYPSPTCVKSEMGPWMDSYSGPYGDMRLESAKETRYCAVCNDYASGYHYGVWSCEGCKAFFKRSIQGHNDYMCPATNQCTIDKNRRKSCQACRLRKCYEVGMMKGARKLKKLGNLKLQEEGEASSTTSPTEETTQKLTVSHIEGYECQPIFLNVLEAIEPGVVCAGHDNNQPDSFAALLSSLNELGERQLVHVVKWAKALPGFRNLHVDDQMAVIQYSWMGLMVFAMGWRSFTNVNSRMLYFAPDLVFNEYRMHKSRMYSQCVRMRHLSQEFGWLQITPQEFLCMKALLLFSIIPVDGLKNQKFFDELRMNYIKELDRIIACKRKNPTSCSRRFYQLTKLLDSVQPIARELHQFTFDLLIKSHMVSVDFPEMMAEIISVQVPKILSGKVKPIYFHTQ

[3] = AUC normalized to vehicle and DHT controls, result in words
[4] = GFP-ARER:PRL-HeLa, 2 hours, result in words

## C[C@]12CCC(=O)C[C@@H]1CC[C@@H]1[C@@H]2CC[C@]2(C)[C@@H](O)CC[C@@H]12 [DHT, 5α-dihydrotestosterone]
GFP-AR; GFP-AR:HeLa
  EC50: 0.011 ± 0.002 µM

## CC#C[C@]1(O)CC[C@H]2[C@@H]3CCC4=CC(=O)CCC4=C3[C@@H](c3ccc(N(C)C)cc3)C[C@@]21C [RU486]
[1]
  visible chromatin binding in the GFP-PRER:PRL-HeLa cell model: induces visible chromatin binding

## CN(C)c1ccc([C@H]2C[C@]3(C)[C@@H](CC[C@]3(O)CCCO)[C@@H]3CCC4=CC(=O)CCC4=C32)cc1 [ZK98299]
[1]
  visible chromatin binding in the GFP-PRER:PRL-HeLa cell model: does not

## C[C@]12CC[C@@H]3c4ccc(O)cc4CC[C@H]3[C@@H]1CCC2=O [estrone]
[2]; [3]
  AUC score for nuclear translocation, chromatin binding, and receptor stabilization (k-means cluster): low/moderate AUC score
[2]; [4]
  GFP-ARER nuclear translocation: strongest responders
  visible chromatin binding (PRL array spot) by GFP-ARER: induce a visible spot indicating chromatin binding

## CC(C)(O)C(=O)Nc1ccc([N+](=O)[O-])c(C(F)(F)F)c1 [hydroxyflutamide]
[2]
  GFP-ARER nuclear translocation: strongest responders; also recorded: induced GFP-ARER nuclear translocation
  nuclear translocation AUC score (k-means Cluster 3): stronger AUC scores
  visible chromatin binding (PRL array spot) by GFP-ARER: undetectable evidence of chromatin binding

## CC12CC1(C)C(=O)N(c1cc(Cl)cc(Cl)c1)C2=O (stereo not shown) [promycidone, procymidone]
[2]; [3]
  nuclear translocation AUC score (k-means Cluster 3): stronger AUC scores
[2]; [4]
  GFP-ARER nuclear translocation: strongest responders

## Cc1cc(C(C)(C)c2cc(C)c(O)c(C)c2)cc(C)c1O [tetramethyl-bisphenol A]
[2]; supplemented ATSDR chemicals and mixtures, 0.1 nM to 10 μM (chemicals), 200-fold to 200,000-fold dilution (mixtures), 2 hours
  nuclear translocation response: 10-12 % of DHT response
